Positions of bridges follow the written chain, without caps; N, C: chain ends. Non-standard residues stand in square brackets, D forms with d. Residues, ends and D or L forms follow the SMILES beside them. *: point of attachment. hPhe(3-Cl-4-CF3) = N[C@@H](CCc1ccc(C(F)(F)F)c(Cl)c1)C(=O)O; NMeDab(N,N-(CH2CF2CH2)) = CN[C@@H](CCN1CC(F)(F)C1)C(=O)O; hPhe(4-CF3) = N[C@@H](CCc1ccc(C(F)(F)F)cc1)C(=O)O; Pro(cis-4-Ph) = O=C(O)[C@@H]1C[C@H](c2ccccc2)CN1; NMePhe(4-Cl) = CN[C@@H](Cc1ccc(Cl)cc1)C(=O)O; NMePhe(4-Me) = CN[C@@H](Cc1ccc(C)cc1)C(=O)O; NMeMet(O2) = CN[C@@H](CCS(C)(=O)=O)C(=O)O; Abu(4,4,4-F3) = N[C@@H](CC(F)(F)F)C(=O)O; hNle(7,7-F2) = N[C@@H](CCCCC(F)F)C(=O)O; Phe(2-OMe) = COc1ccccc1C[C@H](N)C(=O)O; Phe(3-I) = N[C@@H](Cc1cccc(I)c1)C(=O)O; NMeCha = CN[C@@H](CC1CCCCC1)C(=O)O; NMeChg = CN[C@H](C(=O)O)C1CCCCC1; NMeF = CN[C@@H](Cc1ccccc1)C(=O)O; NMeT = CN[C@H](C(=O)O)[C@@H](C)O; NMeD = CN[C@@H](CC(=O)O)C(=O)O; NMeL = CN[C@@H](CC(C)C)C(=O)O; NMeV = CN[C@H](C(=O)O)C(C)C; d(β3hA) = C[C@@H](N)CC(=O)O; Pip = O=C(O)[C@@H]1CCCCN1; NMeA = CN[C@@H](C)C(=O)O; NMeAib = CNC(C)(C)C(=O)O; Piperidide = C1CCN(*)CC1; Pyrrolidide = C1CCN(*)C1; dNMeA = CN[C@H](C)C(=O)O; Ac5c = NC1(C(=O)O)CCCC1; Aze = O=C(O)[C@@H]1CCN1; Sar = CNCC(=O)O
The compounds below were run against T1, Kras and SOS1 (biotin-tagged human Kras loaded with GDP, His-tagged human SOS1) (Homo sapiens, UniProt P01116, G12D) (assay: Protein-protein interaction inhibition between Kras and SOS1 (KrasGl2D-SOS PPI) using AlphaScreen). Conditions: AlphaScreen; biotin-tagged human Kras loaded with GDP, His-tagged human SOS1; read-out: KRAS G12D-SOS PPI IC50.
T1 construct: made in house; host or cells: E. coli (stated for Kras only)
Assay type: binding
Outline: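 Binding between SOS1 and Kras is detected as bead-proximity luminescence: illuminate Ni-conjugated donors (680 nm), collect 520-620 nm emission from streptavidin-conjugated acceptors; Kras carries biotin and GDP loaded after purification, SOS1 carries a His tag.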

T1 sequence (P01116 1-188 isoform P01116-2 G12D): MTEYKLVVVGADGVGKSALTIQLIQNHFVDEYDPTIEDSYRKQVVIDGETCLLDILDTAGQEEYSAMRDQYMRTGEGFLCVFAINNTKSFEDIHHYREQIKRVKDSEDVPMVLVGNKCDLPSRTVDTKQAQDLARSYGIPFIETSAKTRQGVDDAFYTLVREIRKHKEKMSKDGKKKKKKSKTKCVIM

Point of comparison: CC[C@H](C)[C@@H]1NC(=O)[C@H](C)N(C)C(=O)C[C@@H](C(=O)N2CCCCC2)N(C)C(=O)[C@H](C(C)C)N(C)C(=O)[C@H](CC(F)(F)F)NC(=O)[C@H](CCN2CC(F)(F)C2)N(C)C(=O)[C@H](CCc2ccc(C(F)(F)F)c(Cl)c2)NC(=O)CN(C)C(=O)[C@H](CC2CCCCC2)N(C)C(=O)CN(C)C(=O)CN(C)C1=O [Compound 1104] ([NMeA]I[Sar][Sar][NMeCha][Sar][hPhe(3-Cl-4-CF3)][NMeDab(N,N-(CH2CF2CH2))][Abu(4,4,4-F3)][NMeV][NMeD]-Piperidide; lactam N-11), IC50 11 nM. Against it:
- CC[C@H](C)[C@@H]1NC(=O)[C@H](C)N(C)C(=O)C[C@@H](C)NC(=O)[C@H](CC(C)C)N(C)C(=O)C2(CCCC2)NC(=O)[C@@H]2CCCN2C(=O)[C@H](CCc2ccc(C(F)(F)F)cc2)NC(=O)CN(C)C(=O)[C@H](CC2CCCCC2)N(C)C(=O)CN(C)C(=O)CN(C)C1=O [Compound 1090] (cyclo([Ac5c][NMeL][d(β3hA)][NMeA]I[Sar][Sar][NMeCha][Sar][hPhe(4-CF3)]P)) — 8-fold higher, 88 nM
- CC[C@H](C)[C@@H]1NC(=O)[C@H](C)N(C)C(=O)C[C@@H](C(=O)N2CCCC2)NC(=O)[C@H](CC(C)C)N(C)C(=O)[C@H](Cc2ccccc2)N(C)C(=O)[C@H](CCCCC(F)F)NC(=O)[C@H](CCc2ccc(C(F)(F)F)cc2)NC(=O)CN(C)C(=O)[C@H](Cc2ccc(Cl)cc2)N(C)C(=O)CN(C)C(=O)CN(C)C1=O [Compound 1092] ([NMeA]I[Sar][Sar][NMePhe(4-Cl)][Sar][hPhe(4-CF3)][hNle(7,7-F2)][NMeF][NMeL]D-Pyrrolidide; lactam N-11) — 3.7-fold higher, 41 nM
- CC[C@H](C)[C@@H]1NC(=O)[C@H](CC(C)C)N(C)C(=O)C[C@@H](C(=O)N2CCCCC2)N(C)C(=O)[C@H](C2CCCCC2)N(C)C(=O)C2(CCCC2)NC(=O)[C@@H]2CCCN2C(=O)[C@H](CCc2ccc(C(F)(F)F)c(Cl)c2)NC(=O)CN(C)C(=O)[C@H](CCS(C)(=O)=O)N(C)C(=O)CN(C)C(=O)CN(C)C1=O [Compound 1094] ([NMeL]I[Sar][Sar][NMeMet(O2)][Sar][hPhe(3-Cl-4-CF3)]P[Ac5c][NMeChg][NMeD]-Piperidide; lactam N-11) — 5-fold lower, 2.2 nM
- CC[C@H](C)[C@@H]1NC(=O)[C@H](CC(C)C)N(C)C(=O)C[C@@H](C(=O)N2CCCCC2)N(C)C(=O)[C@H](C2CCCCC2)N(C)C(=O)C2(CCCC2)NC(=O)[C@@H]2C[C@H](c3ccccc3)CN2C(=O)[C@H](CCc2ccc(C(F)(F)F)c(Cl)c2)NC(=O)CN(C)C(=O)[C@H](CC2CCCCC2)N(C)C(=O)[C@@H]2CCCN2C(=O)CN(C)C1=O [Compound 1096] ([NMeL]I[Sar]P[NMeCha][Sar][hPhe(3-Cl-4-CF3)][Pro(cis-4-Ph)][Ac5c][NMeChg][NMeD]-Piperidide; lactam N-11) — 4.2-fold lower, 2.6 nM
- CC[C@H](C)[C@@H]1NC(=O)[C@@H]2CCCCN2C(=O)C[C@@H](C)NC(=O)[C@H](CC(C)C)N(C)C(=O)C2(CCCC2)NC(=O)[C@@H]2CCCN2C(=O)[C@H](CCc2ccc(C(F)(F)F)cc2)NC(=O)CN(C)C(=O)[C@H](CC2CCCCC2)N(C)C(=O)CN(C)C(=O)CN(C)C1=O [Compound 1097] (cyclo([Ac5c][NMeL][d(β3hA)][Pip]I[Sar][Sar][NMeCha][Sar][hPhe(4-CF3)]P)) — 21-fold higher, 230 nM
- CC[C@H](C)[C@@H]1NC(=O)[C@H](CC(C)C)N(C)C(=O)C[C@@H](C(=O)N2CCCCC2)N(C)C(=O)[C@H](CC(C)C)NC(=O)C(C)(C)N(C)C(=O)[C@H](Cc2ccccc2OC)NC(=O)[C@H](Cc2cccc(I)c2)NC(=O)CN(C)C(=O)[C@H](Cc2ccc(C)cc2)N(C)C(=O)CN(C)C(=O)CN(C)C1=O [Compound 1100] ([NMeL]I[Sar][Sar][NMePhe(4-Me)][Sar][Phe(3-I)][Phe(2-OMe)][NMeAib]L[NMeD]-Piperidide; lactam N-11) — 1.7-fold lower, 6.3 nM
- CC[C@H](C)[C@@H]1NC(=O)[C@H](CC(C)C)N(C)C(=O)C[C@@H](C(=O)N2CCCCC2)N(C)C(=O)[C@H]([C@@H](C)OC)N(C)C(=O)C2(CCCC2)NC(=O)[C@@H]2CCCN2C(=O)[C@H](CCc2ccc(C(F)(F)F)c(Cl)c2)NC(=O)CN(C)C(=O)[C@H](CC2CCCCC2)N(C)C(=O)CN(C)C(=O)CN(C)C1=O [Compound 1101] ([NMeL]I[Sar][Sar][NMeCha][Sar][hPhe(3-Cl-4-CF3)]P[Ac5c][NMeT](Me)[NMeD]-Piperidide; lactam N-11) — within 1.5-fold, 9 nM
- CC[C@H](C)[C@@H]1NC(=O)[C@H](C)N(C)C(=O)C[C@@H](C(=O)N2CCCCC2)N(C)C(=O)[C@H](C(C)C)N(C)C(=O)C2(CCCC2)NC(=O)[C@@H]2CCCN2C(=O)[C@H](CCc2ccc(C(F)(F)F)c(Cl)c2)NC(=O)[C@@H](C)N(C)C(=O)[C@H](CC2CCCCC2)N(C)C(=O)[C@@H]2CCN2C(=O)[C@H](C)N(C)C1=O [Compound 1103] ([NMeA]I[NMeA][Aze][NMeCha][dNMeA][hPhe(3-Cl-4-CF3)]P[Ac5c][NMeV][NMeD]-Piperidide; lactam N-11) — within 1.5-fold, 16 nM
